According to paper PMC4389225, “Triaminopyrimidine is a fast-killing and long-acting antimalarial clinical candidate” (Nature Communications, 2015):

Tests used:
[1] = test system: asexual blood stage of Pf; test: Pf asexual blood stage potency (Pf IC50); type: cell-based, Plasmodium falciparum
From the text: The TAPs series emerged from a high-throughput screen (HTS) of 500,000 compounds from the AstraZeneca corporate library against the asexual blood stage of Pf using a high-content image-based approach. The procedure for synthesis of compounds 1-6, 10, 11 using a scheme similar to Fig. 1 is provided in Supplementary Note 1. The initial hit provided multiple diversification points for a robust lead optimization campaign. […] Compounds with 2-pyridyl modification at the 2-amino position of pyrimidine core improved potency and solubility at the cost of potent activity against hERG and acetylcholine esterase (AChE; compounds 3-6; Table 1). […] The observed hERG and AChE selectivity improvement with 7 could be attributed to the polar nature of the pyrazole group and its role in reducing the pKa of the core pyrimidine ring. […] To assess the potential for cross-resistance, representative TAPs were screened against a panel of clinical isolates and in vitro-generated mutant strains displaying varying mechanisms of resistance to antimalarial agents currently in use and under development, respectively, (Supplementary Tables 1–3).

Pf3D7^0087/N9 = test: animal or person; type: in vivo, Plasmodium falciparum
From the text: All animal studies were ethically reviewed and carried out in accordance with European Directive 86/609/EEC and the GSK Policy on the Care, Welfare and Treatment of Animals. During this experiment, female mice were used from the batch NSGJ 01/1 (The Jackson Laboratory, USA). The therapeutic efficacy of compound 12 against Pf3D7^0087/N9 was studied using a ‘4-day test’ reported earlier. Briefly, NODscidIL2Rγ^null mice engrafted with human erythrocytes were infected with 20 × 10^6 Pf-infected erythrocytes. Infections were performed by i.v. inoculation. All mice were randomly assigned to their corresponding treatment. The treatment started at day 3 and finished at day 6 after infection. The compound was administered orally as a suspension in 0.5% w/v hydroxypropyl methylcellulose (HPMC) with 0.1% v/v Tween 80, using an oral gavage at a maximum dose volume of 20 ml kg^−1. Vehicle alone was administered in untreated mice. In all cases, parasitemia was assessed in samples from peripheral blood obtained at days 3–7 after infection. A qualitative analysis of the effect of treatment on Pf3D7^0087/N9 was assessed by microscopy and flow cytometry. Fresh samples of peripheral blood from Pf-infected mice were stained with TER-119-Phycoerythrine (marker of murine erythrocytes) and SYTO-16 (nucleic acid dye) and then analysed by flow cytometry (FACS Calibur, BD). Microscopy analysis was performed with Giemsa-stained blood smears from samples taken at days 5 and 7 (48 and 96 h after starting treatment, respectively).
PK-PD model for the metabolite (compound 9) alone. Pharmacokinetic data from the Pf/SCID model was linked to efficacy using the following equation5.
Where P [log (total no. of parasites / mouse)], Kgro (growth rate constant), Pmax (log (maximum no. of parasites / mouse)), Kkill (maximum kill rate constant), H (Hill slope), EC50 (concentration required for achieving half maximal kill rate) and Ce (concentration of the drug in the effect compartment). Percent parasitemia values were converted into total number of parasites in mouse blood assuming […] (9.23 log10) RBCs per mouse. The lower limit of quantitation for % parasitemia was 0.01% or 5.23 log10. Effect compartment was used for modelling the delay observed in efficacy at a lower dose. […]

[2] = PK in the blood of infected Pf/SCID mice; type: in vivo, mouse; conditions: for CL/F: SCID, mouse, whole blood
Method: Peripheral blood samples (25 μl) were taken at different times (0.25, 0.5, 1, 2, 4, 6, 8 and 23 h), mixed with 25 μl of H2O Mili-Q and immediately frozen on dry ice. The frozen samples were stored at −80 °C until analysis. Vehicle-treated mice experienced the same blood-sampling regimen. Blood samples were processed by liquid–liquid extraction by mixing 10 μl diluted blood with 180 μl AcN:MeOH (80:20; v-v) mixture. Quantitative analysis by Liquid chromatography-tandem mass spectrometry (LC-MS/MS) was performed using UPLC (Waters) and Sciex API4000. The lower limit of quantification in this assay was 0.005 μg ml^−1.

Pf 7G8 = test: microbe, parasite or virus in culture; type: cell-based; conditions: Plasmodium falciparum
From the text: (§1) tested in duplicate from two independent experiments using a SYBR-Green based assay2.
(§2) (1 picture or pasted object on this page, not shown here)

Pf DD2 = test: microbe, parasite or virus in culture; type: cell-based; conditions: Plasmodium falciparum
From the text: as §1, §2

Pf K1 = test: microbe, parasite or virus in culture; type: cell-based; conditions: Plasmodium falciparum
From the text: as §1, §2

Pf NF54 = test: microbe, parasite or virus in culture; type: cell-based; conditions: Plasmodium falciparum
From the text: as §1, §2

Pf SB1 = test: microbe, parasite or virus in culture; type: cell-based; conditions: Plasmodium falciparum
From the text: as §1, §2

Pf W2 = test: microbe, parasite or virus in culture; type: cell-based; conditions: Plasmodium falciparum
From the text: as §1, §2

Dd2 = test: [3H]-hypoxanthine incorporation assay, Dd2; type: cell-based, Plasmodium falciparum; conditions: Plasmodium falciparum, DD2
Method: (§3) 9 and 12 were tested for their antiplasmodial activity against a panel of Pf strains known to harbour mutations conferring resistance to novel agents under clinical development. Parasite growth inhibition is measured using the [3H]-hypoxanthine incorporation assay. IC50s are established for each strain (n ≥2) and compared to the IC50 of Dd2 (standard pan-resistant

Dd2 bc-1 ELQ-300 = test: [3H]-hypoxanthine incorporation assay, Dd2 bc-1 ELQ-300 resistant; type: cell-based, Plasmodium falciparum; conditions: Plasmodium falciparum, DD2
Method: as §3, with “Supplementary Table 3: Compound 9 and 12 retain their activity against Pf strains harbouring mutations to novel antimalarial agents in clinical development. Compound 9” for “9”, “pan-resistant […]” for “pan-resistant”

Dd2 PI4K Cpd 1 = test: [3H]-hypoxanthine incorporation assay, Dd2 PI4K Cpd 1 resistant; type: cell-based; conditions: Plasmodium falciparum
Method: as §3, with “Supplementary Table 3: Compound 9 and 12 retain their activity against Pf strains harbouring mutations to novel antimalarial agents in clinical development. Compound 9” for “9”, “pan-resistant […]” for “pan-resistant”

Dd2 DHODH DSM265 = test: [3H]-hypoxanthine incorporation assay, Dd2 DHODH DSM265 resistant; type: cell-based; conditions: Plasmodium falciparum
Method: as §3, with “Supplementary Table 3: Compound 9 and 12 retain their activity against Pf strains harbouring mutations to novel antimalarial agents in clinical development. Compound 9” for “9”, “pan-resistant […]” for “pan-resistant”

Dd2 PfATP4 NITD609 = test: [3H]-hypoxanthine incorporation assay, Dd2 PfATP4 NITD609 resistant; type: cell-based; conditions: Plasmodium falciparum
Method: as §3, with “Supplementary Table 3: Compound 9 and 12 retain their activity against Pf strains harbouring mutations to novel antimalarial agents in clinical development. Compound 9” for “9”, “pan-resistant […]” for “pan-resistant”

PfATP4 Cpd 2 = test: [3H]-hypoxanthine incorporation assay, PfATP4 Cpd 2 resistant; type: cell-based; conditions: Plasmodium falciparum
Method: as §3, with “Supplementary Table 3: Compound 9 and 12 retain their activity against Pf strains harbouring mutations to novel antimalarial agents in clinical development. Compound 9” for “9”, “pan-resistant […]” for “pan-resistant”

PfATP4 Cpd 3 = test: [3H]-hypoxanthine incorporation assay, PfATP4 Cpd 3 resistant; type: cell-based; conditions: Plasmodium falciparum
Method: as §3, with “Supplementary Table 3: Compound 9 and 12 retain their activity against Pf strains harbouring mutations to novel antimalarial agents in clinical development. Compound 9” for “9”, “pan-resistant […]” for “pan-resistant”

Cpd 4 Unpublished Target = test: [3H]-hypoxanthine incorporation assay, Cpd 4 Unpublished Target resistant; type: cell-based; conditions: Plasmodium falciparum
Method: as §3, with “Supplementary Table 3: Compound 9 and 12 retain their activity against Pf strains harbouring mutations to novel antimalarial agents in clinical development. Compound 9” for “9”, “pan-resistant […]” for “pan-resistant”

[3] = 10 mg kg-1, one compartment POPK model
[4] = 30 mg kg-1, one compartment POPK model

For Cc1nc(Nc2ncc(N3CCNC(C)C3)c(Nc3cc(C)n(C)n3)n2)cc(C2CC2)c1F.Cl.Cl (stereo not shown) [compound 9, N2-(4-cyclopropyl-5-fluoro-6-methylpyridin-2-yl)-N4-(1,5-dimethyl-1H-pyrazol-3-yl)-5-(3-methylpiperazin-1-yl)pyrimidine-2,4-diamine dihydrochloride], the IC50 ([1]; Plasmodium falciparum) was 14 nM, the “improvement in Pf potency” value ([1]; compound 9 relative to compound 7) was > 10 fold and the “Kkill (maximum kill rate constant)” value (Pf3D7^0087/N9; PK-PD model for compound 9 alone) was 0.2 h⁻¹. For the same molecule, the EC50 (Pf3D7^0087/N9; Plasmodium falciparum, in Mus musculus, read-out: EC50 (blood concentration for half-maximal kill rate)) was 309 nM, the Kkillm (Pf3D7^0087/N9; metabolite, Fixed) was 0.2 h⁻¹ and the Ka [2, 3] was 0.29 h⁻¹. For the same molecule, the Ka [2, 4] was 0.62 h⁻¹, the V/F [2, 4] was 53 L/kg and the CL/F [2, 3] was 122 mL/min/kg. It also gave a CL/F [2, 4] of 117 mL/min/kg, a V/F ([2]; compound 9, 10 mg kg-1, one compartment POPK model) of 70 L/kg and a CLm ([2]; metabolite, Fixed) of 1330 mL/min/kg. The Ke0m ([2]; metabolite, Fixed) was 0.06 h⁻¹, the Vcm ([2]; metabolite, Fixed) was 29 L/kg and the IC50 (Pf 7G8) was 26.5 ± 5 nM. For the same molecule, the IC50 (Pf DD2) was 19.6 ± 7 nM, the IC50 (Pf K1) was 33.8 ± 5 nM and the IC50 (Pf NF54) was 18.5 ± 5 nM. It also gave an IC50 (Pf SB1) of 25.6 ± 13 nM, an IC50 (Pf W2) of 28.1 ± 8 nM and an IC50 (Dd2) of 6 nM. For the same molecule, the IC50 (Dd2 bc-1 ELQ-300) was 10 nM, the IC50 (Dd2 PI4K Cpd 1) was 10 nM and the IC50 (Dd2 DHODH DSM265) was 9.1 nM. For the same molecule, the IC50 (Dd2 PfATP4 NITD609) was 8.6 nM, the IC50 (PfATP4 Cpd 2) was 11 nM and the IC50 (PfATP4 Cpd 3) was 11 nM. For the same molecule, the IC50 (Cpd 4 Unpublished Target) was 9.4 nM.
